From patent EP4737450A1 (Longwood Pharmaceuticals (Hangzhou) Co., Ltd, priority 2023, dated 2025)
pIC50: −log10 of the molar value. Values joined by “and” are separate entries in the source; they are usually repeats but may differ in a detail not shown here. Equal values may be shown once.

molecular target: T1, plasma kallikrein (PKa) (Homo sapiens, UniProt P03952); test: Inhibitory activity against plasma kallikrein in vitro (fluorescence intensity enzyme assay, Pro-Phe-Arg-AMC substrate); type: biochemical; conditions: PKa IC50, plasma kallikrein enzyme assay, Pro-Phe-Arg-AMC substrate
T1 construct: purchased R & D 2497-SE
T1 sequence (P03952 391-638 limits assumed): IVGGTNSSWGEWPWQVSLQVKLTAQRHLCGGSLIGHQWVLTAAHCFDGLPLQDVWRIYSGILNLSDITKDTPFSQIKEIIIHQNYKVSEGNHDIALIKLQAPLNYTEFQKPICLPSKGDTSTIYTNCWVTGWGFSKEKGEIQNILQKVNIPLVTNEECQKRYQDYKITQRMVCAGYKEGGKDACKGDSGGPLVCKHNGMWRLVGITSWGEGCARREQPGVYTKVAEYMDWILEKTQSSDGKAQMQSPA
T1 sequence (P03952 20-390 partner limits assumed): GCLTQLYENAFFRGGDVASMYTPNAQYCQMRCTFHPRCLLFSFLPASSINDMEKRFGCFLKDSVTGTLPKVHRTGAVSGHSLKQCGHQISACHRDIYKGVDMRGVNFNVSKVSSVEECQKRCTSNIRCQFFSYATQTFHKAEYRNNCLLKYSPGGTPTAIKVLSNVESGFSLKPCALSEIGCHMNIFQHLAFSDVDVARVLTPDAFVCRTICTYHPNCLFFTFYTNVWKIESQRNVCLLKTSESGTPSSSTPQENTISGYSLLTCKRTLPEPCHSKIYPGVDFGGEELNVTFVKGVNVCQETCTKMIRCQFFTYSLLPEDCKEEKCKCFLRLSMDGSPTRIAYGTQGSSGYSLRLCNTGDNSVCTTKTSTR
Description: Test of the inhibitory activities of the compounds of the present invention against plasma kallikrein (PKa), KLK1 and FXIa in vitro.
The final concentrations of enzyme protein and Pro-Phe-Arg-AMC in the reaction mixture were 10 nM and 60 µM, respectively. The starting concentration of the positive reference substance Avoralstat was 100 nM, 3-fold dilution, 10 + 0 dose. 0.05 µL of compound in 100% DMSO was delivered to a 384-well plate by an acoustic liquid delivery technique (Echo665; nanoliter range). Compound duplex test. […] IC50 values and nonlinear regression curve fitting were obtained using GraphPad Prism software.

Structure (SMILES)	pIC50
COCc1nn(Cc2ccc(Cn3ccccc3=O)cc2)cc1C(=O)NCc1ncc2c(n1)CNC2 [Compound 144]	7.59
O=C(NCc1ncc2c(n1)CNC2)c1cn(Cc2ccc(Cn3ccccc3=O)cc2)nc1C(F)(F)F [Compound 156]	6.17
COCC1(F)CN(Cc2nn(Cc3ccc(Cn4ccccc4=O)cc3)cc2C(=O)NCc2nccc(OC)c2F)C1 [Compound 205, 3-((3-fluoro-3-(methoxymethyl)azetidin-1-yl)methyl)-N-(3-fluoro-4-methoxypyridin-2-yl)methyl]	8.05

same assay, conditions: plasma kallikrein enzyme assay, Pro-Phe-Arg-AMC substrate; read-out: PKa IC50

Structure (SMILES)	pIC50
COCc1nn(Cc2ccc(Cn3c(=O)sc4ccccc43)cc2)cc1C(=O)NCc1nccc(OC)c1F [Compound 140]	7.11
COCc1nn(Cc2ccc(Oc3ccccc3)cc2)cc1C(=O)NCc1ccn2ccnc2c1 [Compound 141]	< 6.00
COCc1nn(Cc2ccc(-n3ccccc3=O)cc2)cc1C(=O)NCc1cn2c(n1)CNCC2 [Compound 145]	< 6.00
Cc1[nH]c(C(=O)NCc2cc3cnccc3[nH]2)c(C)c1Cc1ccc(Cn2ccccc2=O)cc1 [Compound 148]	6.46
COc1ccnc(CNC(=O)c2[nH]cc(Cc3ccc(Cn4ccccc4=O)cc3)c2C)c1F [Compound 151]	6.26
COCc1nn(Cc2ccc(Cn3ccccc3=O)cc2)cc1C(=O)NCc1nc2c(s1)CNCC2 [Compound 152]	6.23
COCc1nn(Cc2ccc(Cn3ccccc3=O)cc2)cc1C(=O)NCc1c(Cl)c2ccncc2n1C [Compound 154]	7.16
COCc1nn(Cc2ccc(Cn3c(=O)ccc4ccccc43)cc2)cc1C(=O)NCc1nccc(OC)c1F [Compound 159]	7.03
COCc1nn(Cc2ccc(Cn3c(=O)sc4cccc(F)c43)cc2)cc1C(=O)NCc1nccc(OC)c1F [Compound 160]	6.38
COCc1nn(Cc2ccc(Cn3ccccc3=O)cc2)cc1C(=O)NCc1cc2cnccc2n1C [Compound 161]	7.90
COCCOCc1nn(Cc2ccc(Cn3ccccc3=O)cc2)cc1C(=O)NCc1nccc(OC)c1F [Compound 162]	8.06
COc1ccnc(CNC(=O)c2cn(Cc3ccc(Cn4ccccc4=O)cc3)nc2COCC(=O)N(C)C)c1F [Compound 164]	7.58
COc1ccnc(CNC(=O)c2cn(Cc3ccc(Cn4ccccc4=O)cc3)nc2-c2cnc(O)nc2)c1F [Compound 165]	7.46
Cc1cnn(C)c1-c1nn(Cc2ccc(Cn3ccccc3=O)cc2)cc1C(=O)NCc1nccc(N(C)C)c1F [Compound 166]	8.34
COc1ccnc(CNC(=O)c2cn(Cc3ccc(Cn4ccccc4=O)cc3)nc2CN2CCCC2=O)c1F [Compound 169]	7.92
COc1ccnc(CNC(=O)c2cn(Cc3ccc(Cn4ccccc4=O)cc3)nc2N2CC[C@@H](OC)C2)c1F [Compound 171]	7.07
CC[C@@H](COC)OCc1nn(Cc2ccc(Cn3ccccc3=O)cc2)cc1C(=O)NCc1nccc(OC)c1F [Compound 172]	6.95
COc1ccnc(CNC(=O)c2cn(Cc3ccc(Cn4ccccc4=O)cc3)nc2C2CN(C(=O)C(C)C)C2)c1F [Compound 173]	7.93
COc1ccnc(CNC(=O)c2cn(Cc3ccc(Cn4ccccc4=O)cc3)nc2CN2CC(C)(C)CC2=O)c1F [Compound 174]	7.94
CCn1c(CNC(=O)c2cn(Cc3ccc(Cn4ccccc4=O)cc3)nc2COC)cc2cnccc21 [Compound 176]	7.74
O=C(NCc1cc2ccncc2[nH]1)c1nc(Cc2ccc(Cn3ccccc3=O)cc2)ns1 [Compound 177]	7.76

Structure (SMILES)	pIC50
N#Cc1cc(N2CC3C(C2)C3(F)F)ccc1Cn1cc(C(=O)NCc2cc3ccncc3[nH]2)c(C(F)(F)F)n1 (stereo not drawn) [Compound 178]	8.11
COc1ccc(F)c(CNC(=O)c2cn(Cc3ccc(Cn4cc(F)ccc4=O)cc3)nc2[C@H](C)C2COC2)c1F [Compound 179]	7.82
COc1ccc(F)c(CNC(=O)c2cn(Cc3ccc(Cn4cc(F)ccc4=O)cc3)nc2[C@@H](C)C2COC2)c1F [Compound 180]	8.10
COc1ccnc(CNC(=O)c2cn(Cc3ccc(CN4C(=O)C5(CC5)c5ccc(F)cc54)cc3)nc2C(F)(F)F)c1F [Compound 181]	6.21
COCc1nn(Cc2ccc(N3CCCCC3=O)cc2C#N)cc1C(=O)NCc1nccc(OC)c1F [Compound 182]	< 6.00
COCc1nn(Cc2ccc(Oc3ccccc3)cc2)cc1C(=O)NCc1cc2ccncc2[nH]1 [Compound 185]	7.07
O=C(NCc1cc2ccncc2[nH]1)c1cn(Cc2ccc(Oc3ccccc3)cc2)nc1C(F)(F)F [Compound 186]	6.15
Nc1ncc2cc(CNC(=O)c3cnn(Cc4ccc(Cn5ccccc5=O)cc4)c3)ccn12 [Compound 187]	7.97
COCc1nn(Cc2ccc(N3CC4C(C3)C4(F)F)cc2C#N)cc1C(=O)NCc1c(C)cn2cncc2c1C (stereo not drawn) [Compound 188]	8.56
COc1ccc(C#N)c(CNC(=O)c2cnn(Cc3ccc(Cn4ccccc4=O)cc3)c2)c1C [Compound 189]	6.74
COCc1nn(Cc2ccc(Cn3ccccc3=O)cc2)cc1C(=O)NCc1c(C#N)ccc(OC)c1C [Compound 190]	< 6.00
COc1ccnc(CNC(=O)c2cn(Cc3ccc(Cn4ccccc4=O)cc3)nc2COCCN(C)C)c1F [Compound 191]	7.79
COCCn1c(CNC(=O)c2cn(Cc3ccc(Cn4ccccc4=O)cc3)nc2COC)cc2cnccc21 [Compound 192]	< 6.00
CCc1cc(N2CC3C(C2)C3(F)F)ccc1Cn1cc(C(=O)NCc2cc3cnccc3[nH]2)c(COC)n1 (stereo not drawn) [Compound 195]	6.72
Cn1c(CNC(=O)c2cn(Cc3ccc(Cn4ccccc4=O)cc3)nc2C(F)(F)F)cc2cnccc21 [Compound 196]	7.82
O=C(NCc1ccc2ccncc2c1)c1cnn(Cc2ccc(Cn3ccccc3=O)cc2)c1 [Compound 197]	6.79
COc1ccnc(CNC(=O)c2cn(Cc3ccc(Cn4c(C(F)(F)F)nccc4=O)cc3)nc2C(F)(F)F)c1F [Compound 198]	< 6.00
CCc1cc(N2CC3C(C2)C3(F)F)ccc1Cn1cc(C(=O)NCc2cc3ccncc3[nH]2)c(C(F)(F)F)n1 (stereo not drawn) [Compound 199]	7.70
Cc1cn2cncc2c(C)c1CNC(=O)c1cn(Cc2ccc(N3CC4C(C3)C4(F)F)cc2C#N)nc1C(F)(F)F (stereo not drawn) [Compound 200]	8.25
COc1ccnc(CNC(=O)c2cn(Cc3ccc(Cn4ccccc4=O)cc3)nc2CN2CCC(OC)CC2)c1F [Compound 201]	7.97
COc1ccc(C#N)c(CNC(=O)c2cn(Cc3ccc(Cn4ccccc4=O)cc3)nc2C(F)(F)F)c1C [Compound 202]	< 6.00

Structure (SMILES)	pIC50
Cc1cc2ncnn2c(C)c1CNC(=O)c1cn(Cc2ccc(Cn3ccccc3=O)cc2)nc1C(F)(F)F [Compound 206]	6.50
O=C(NCc1ccc2cnccc2c1)c1cnn(Cc2ccc(Cn3ccccc3=O)cc2)c1 [Compound 207]	6.78
COc1ccnc(CNC(=O)c2cn(Cc3ccc(Cn4ccccc4=O)cc3)nc2C2CC(OC)C2)c1F (stereo not drawn) [Compound 208]	8.10
COc1ccc(F)c(CNC(=O)c2cn(Cc3ccc(Cn4cc(F)ccc4=O)cc3)nc2C2CC(F)(F)C2)c1F [Compound 209, N-(2,6-difluoro-3-methoxybenzyl)-3-(3,3-difluorocyclobutyl)-1-(4-((5-fluoro-2-oxopyridin-1(2H)yl)methyl)benzyl)-1H-pyrazole-4-carboxamide]	7.97 and < 7.00
COc1ccnc(CNC(=O)c2cn(Cc3ccc(Cn4ccccc4=O)cc3)nc2C2CC(C)(OC)C2)c1F (stereo not drawn) [Compound 210]	8.22
COc1ccc(F)c(CNC(=O)c2cn(Cc3ccc(Cn4ccccc4=O)cc3)nc2C2CC(C)(OC)C2)c1F (stereo not drawn) [Compound 211]	8.08
Nc1nc2ccc(CNC(=O)c3cnn(Cc4ccc(Cn5ccccc5=O)cc4)c3)cc2s1 [Compound 215]	6.10
COc1ccnc(CNC(=O)c2cn(Cc3ccc(Cn4ccccc4=O)cc3)nc2C2CC2(F)F)c1F (stereo not drawn) [Compound 216]	8.58
COc1ccc(F)c(CNC(=O)c2cn(Cc3ccc(Cn4cc(F)ccc4=O)cc3)nc2COCCN(C)C)c1F [Compound 219]	8.30
COCC1(F)CN(Cc2nn(Cc3ccc(Cn4cc(F)ccc4=O)cc3)cc2C(=O)NCc2c(F)ccc(OC)c2F)C1 [Compound 220]	7.92
COCC1(F)CN(c2nn(Cc3ccc(Cn4ccccc4=O)cc3)cc2C(=O)NCc2nccc(OC)c2F)C1 [Compound 223]	7.92
COc1ccnc(CNC(=O)c2cn(Cc3ccc(Cn4ccccc4=O)cc3)nc2N2CCOCC2)c1F [Compound 224]	7.55
COc1ccc(F)c(CNC(=O)c2cn(Cc3ccc(Cn4cc(F)ccc4=O)cc3)nc2OCCF)c1F [Compound 226]	7.96
COc1ccc(F)c(CNC(=O)c2cn(Cc3ccc(Cn4cc(F)ccc4=O)c(F)c3)nc2C2CC(OC)C2)c1F (stereo not drawn) [Compound 227]	8.04
COc1ccc(F)c(CNC(=O)c2cn(Cc3ccc(Cn4cc(F)ccc4=O)c(F)c3)nc2C2CC(F)(F)C2)c1F [Compound 228]	7.79
COc1ccnc(CNC(=O)c2cn(Cc3ccc(Cn4ccccc4=O)cc3)nc2OCc2ccccn2)c1F [Compound 229]	7.64
COc1ccc(F)c(CNC(=O)c2cn(Cc3ccc(Cn4ccccc4=O)cc3)nc2COCCN2CCCC2)c1F [Compound 230]	8.01
COc1ccc(F)c(CNC(=O)c2cn(Cc3ccc(Cn4cc(F)ccc4=O)cc3)nc2COCCN2CCCC2)c1F [Compound 231]	8.44
COc1ccnc(CNC(=O)c2cn(Cc3ccc(Cn4ccccc4=O)cc3)nc2N2CC(C)(OC)C2)c1F [Compound 232]	8.15
COc1ccc(F)c(CNC(=O)c2cn(Cc3ccc(Cn4ccccc4=O)cc3)nc2N2CC(F)(F)C2)c1F [Compound 233]	8.01
COc1ccc(F)c(CNC(=O)c2cn(Cc3ccc(Cn4cc(F)ccc4=O)cc3)nc2COCC2(F)COC2)c1F [Compound 234]	8.30
